Source: patent US20240190876A1, “Tricyclic Urea Compounds As JAK2 V617F Inhibitors” (Incyte Corporation, priority 2022, published 2024)

Legend:
[1] = In Vivo Pharmacokinetics, rat oral dosing; set-up: species or system Sprague Dawley rats; conditions: male, Sprague Dawley, oral gavage 3.0 mg/kg, plasma, cassette dosing
Description: Test compounds were administered to male Sprague Dawley rats or male and female Cynomolgus monkeys intravenously or via oral gavage. For intravenous (IV) dosing, test compounds were dosed at 1 mg/kg using a formulation of 10% dimethylacetamide (DMAC), 10% propylene glycol (PG) in acidified saline via IV bolus for rat or 10 min IV infusion for monkey. For oral (PO) dosing, test compounds were dosed at 3.0 mg/kg using 5% DMAC in 0.5% methylcellulose in citrate buffer (pH -2.5). Blood samples were collected at predose and various time points up to 24 hours postdose. All blood samples were collected using EDTA as the anticoagulant and centrifuged to obtain plasma samples. The plasma concentrations of test compounds were determined by LC-MS/MS methods. The measured plasma concentrations were used to calculate PK parameters by standard noncompartmental methods using Phoenix© WinNonlin software program (version 8.0, Pharsight Corporation) or similar software. In rats and monkeys, cassette dosing of test compounds were conducted to obtain preliminary PK parameters. In vivo pharmacokinetic experiments with male beagle dogs may be performed under the conditions described above.

[2] = target: T1, catalytic domain (JH1) of human JAK2 (Homo sapiens, UniProt O60674); assay: JAK2 LanthaScreen JH1 Binding Assay; conditions: 50 nM JAK2-JH1 tracer, 2 hours at 25° C., read-out: JH1 Bind IC50
T1 construct: catalytic domain (JH1, amino acids 826-1132) of human JAK2; FLAG (N); purchased Carna Biosciences 08-445-20N; host or cells: baculovirus expression system
Description: JAK2 JH1 binding assay utilizes catalytic domain (JH1, amino acids 826-1132) of human JAK2 expressed as N-terminal FLAG-tagged, biotinylated protein in a baculovirus expression system (Carna Biosciences, Product #08-445-20N). The assay was conducted in black 384-well polystyrene plates in a final reaction volume of 20 μL. JAK2 JH1 (1.5 nM) was incubated with compounds (100 nL serially diluted in DMSO) in the presence of 50 nM fluorescent JAK2-JH1 tracer and 0.5 nM Streptavidin-Tb cryptate (Cisbio Part #610SATLB) in assay buffer (50 mM Tris, pH=7.5, 10 mM MgCl2, 0.01% Brij-35, 0.1% BSA, 1 mM EGTA, 5% Glycerol and 5 mM DTT). Non-specific binding was accessed in the presence of 2 mM ATP. After incubation for 2 hours at 25° C., LanthaScreen signals were read on a PHERAstar FS plate reader (BMG LABTECH). Data was analyzed with IDBS XLfit and GraphPad Prism 5.0 software using a four parameter dose response curve to determine IC50 for each compound.

[3] = tested on: pSTAT5 signaling in SET-2 cells in whole blood; assay: pSTAT5 SET-2 Whole Blood MSD Assay; format: cell-based; conditions: Homo sapiens, SET-2 cells with whole blood, 2 hour incubation, read-out: SET2 WB IC50
Description: SET-2 cells shipped from ABS, RPMI1640 medium, Fetal Bovine Serum from Gibco, Phospho-STAT5a,b Whole Cell Lysate Kit from Mesoscale, Retronectin (Recombinant Human Fibronectin Fragment) from TaKaRa, 96 well cell culture plate flat bottom from Corning, lysis buffer from Cell Signaling Technology, and sterile PBS from Gibco. Whole Blood from by BioIVT.
SET-2 cells were cultured in RPMI media with 20% FBS at 37° C. humidified incubator supplied with 5% CO2. On the day of the assay, 40 μL per well of diluted retronectin working solution was added to sterile 96-well clear flat bottom tissue culture plates (1:200 dilution of retronectin in sterile PBS) and incubated at 37C for 1 hour. After 1 hour, the retronectin working solution was aspirated and SET-2 cells were seeded at 100,000/well in RPMI+20% FBS. Cells were incubated overnight at 37° C. and 5% CO2.
The next day, the medium was removed and 40 μL of diluted compounds in serum-free RPMI and whole blood was added to the cells for a 2 hour incubation at 37° C. and 5% CO2. The compound starting concentration is 20 μM and 2.5 fold serial diluted down to 0.21 nM. The whole blood and compound mixture was then aspirated off using the BlueCat plate washer and washed 1× with PBS. Cells were lysed by adding 40 μL of 3X complete lysis buffer and shaken at room temperature for 45-60 minutes (complete lysis buffer consists of Cell Signaling Technology lysis buffer diluted to 3X and supplemented with Mesoscale's protease inhibitor, phosphatase I inhibitor, and phosphatase II inhibitor). The pSTAT5 MSD plates were blocked by adding 150 μL of Blocker A solution per well to the MSD plates and incubated at room temperature with shaking at 400 rpm for one hour or longer. After blocking, plates were washed 3X with 300 μL/well of IX Tris Wash Buffer. After lysis, added 25 μL per well of lysed sample was added to MSD plate and incubated with shaking at 4° C. wrapped in foil overnight. The next day, plates were washed again and 25 μL/well of diluted 1X Detection Antibody Solution, wrapped in foil, and incubated at room temperature with shaking at 400 rpm for 1 hour.
Plates were then washed again and lastly, 150 μL/well of 1X Read Buffer T was added to all wells. Plates were analyzed on MSD Discovery within 5 minutes. […] Data analysis was performed in GraphPad Prism using a 4-parameter fit and data was reported as Average ±SD.

T1 sequence (O60674 826-1132): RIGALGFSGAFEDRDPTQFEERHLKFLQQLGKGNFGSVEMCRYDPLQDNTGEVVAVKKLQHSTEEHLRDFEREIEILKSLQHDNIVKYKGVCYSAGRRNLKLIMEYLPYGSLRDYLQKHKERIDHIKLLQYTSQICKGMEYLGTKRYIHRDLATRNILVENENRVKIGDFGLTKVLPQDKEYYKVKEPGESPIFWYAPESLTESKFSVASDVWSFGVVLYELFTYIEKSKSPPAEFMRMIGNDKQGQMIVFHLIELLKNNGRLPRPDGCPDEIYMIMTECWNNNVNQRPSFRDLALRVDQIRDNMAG

COc1ccc(-c2c(-c3cn(C)nc3OC)[nH]c3ncc4c(c23)n([C@H]2CC[C@@](C)(NC(=O)C3CC3)CC2)c(=O)n4C)cc1 [Example 1, N-((1s,4s)-4-(7-(3-Methoxy-1-methyl-1H-pyrazol-4-yl)-8-(4-methoxyphenyl)-3-methyl-2-oxo-3,6-dihydroimidazo[4,5-d]pyrrolo[2,3-b]pyridin-1(2H)-yl)-1-methylcyclohexyl)cyclopropanecarboxamide]
AUC [1]: > 1.5 µM·h
IC50 [2]: > 1000 nM
IC50 [3]: 2500 to 5000 nM

[2H]C([2H])([2H])n1ncc2cc(-c3c(-c4cn(C)nc4OC)[nH]c4ncc5c(c34)n([C@H]3CC[C@@](C)(NC(=O)C4CC4)CC3)c(=O)n5C)ccc21 [Example 2, N-((1s,4s)-4-(7-(3-Methoxy-1-methyl-1H-pyrazol-4-yl)-3-methyl-8-(1-(methyl-d3)-1H-indazol-5-yl)-2-oxo-3,6-dihydroimidazo[4,5-d]pyrrolo[2,3-b]pyridin-1(2H)-yl)-1-methylcyclohexyl)cyclopropanecarboxamide]
AUC [1]: 0.5 to 1.5 µM·h
IC50 [2]: > 1000 nM
IC50 [3]: ≤ 2500 nM

[2H]C([2H])([2H])n1cc(-c2[nH]c3ncc4c(c3c2-c2ccc(OC)cc2)n([C@H]2CC[C@@](C)(NC(=O)C3CC3)CC2)c(=O)n4C)c(F)n1 [Example 3, N-((1s,4s)-4-(7-(3-fluoro-1-(methyl-d3)-1H-pyrazol-4-yl)-8-(4-methoxyphenyl)-3-methyl-2-oxo-3,6-dihydroimidazo[4,5-d]pyrrolo[2,3-b]pyridin-1(2H)-yl)-1-methylcyclohexyl)cyclopropanecarboxamide]
AUC [1]: > 1.5 µM·h
IC50 [2]: > 1000 nM
IC50 [3]: 2500 to 5000 nM

[2H]C([2H])([2H])n1cc(-c2[nH]c3ncc4c(c3c2-c2ccc3c(cnn3C([2H])([2H])[2H])c2)n([C@H]2CC[C@@](C)(NC(=O)C3CC3)CC2)c(=O)n4C)c(F)n1 [Example 4, N-((1s,4s)-4-(7-(3-fluoro-1-(methyl-d3)-1H-pyrazol-4-yl)-3-methyl-8-(1-(methyl-d3)-1H-indazol-5-yl)-2-oxo-3,6-dihydroimidazo[4,5-d]pyrrolo[2,3-b]pyridin-1(2H)-yl)-1-methylcyclohexyl)cyclopropanecarboxamide]
AUC [1]: ≤ 0.5 µM·h
IC50 [2]: > 1000 nM
IC50 [3]: ≤ 2500 nM

[2H]C([2H])([2H])n1ncc2cc(-c3c(-c4cn(CC)nc4F)[nH]c4ncc5c(c34)n([C@H]3CC[C@@](C)(NC(=O)C4CC4)CC3)c(=O)n5C)ccc21 [Example 5, N-((1s,4s)-4-(7-(1-Ethyl-3-fluoro-1H-pyrazol-4-yl)-3-methyl-8-(1-(methyl-d3)-1H-indazol-5-yl)-2-oxo-3,6-dihydroimidazo[4,5-d]pyrrolo[2,3-b]pyridin-1(2H)-yl)-1-methylcyclohexyl)cyclopropanecarboxamide]
AUC [1]: > 1.5 µM·h
IC50 [2]: > 1000 nM
IC50 [3]: ≤ 2500 nM

[2H]C([2H])([2H])n1cc(-c2[nH]c3ncc4c(c3c2-c2ccc(OC)cc2)n([C@H]2CC[C@@](C)(NC(=O)[C@H]3C[C@H]3F)CC2)c(=O)n4C([2H])([2H])[2H])c(F)n1 [Example 6, (1R,2R)-2-Fluoro-N-((1s,4S)-4-(7-(3-fluoro-1-(methyl-d3)-1H-pyrazol-4-yl)-8-(4-methoxyphenyl)-3-(methyl-d3)-2-oxo-3,6-dihydroimidazo[4,5-d]pyrrolo[2,3-b]pyridin-1(2H)-yl)-1-methylcyclohexyl)cyclopropane-1-carboxamide]
AUC [1]: > 1.5 µM·h
IC50 [2]: > 1000 nM
IC50 [3]: ≤ 2500 nM
